The record followed here is patent US10799507B2, “5-(7H-pyrrolo[2,3-d]pyrimidin-4-yl)-5-azaspiro[2.5]octane-8-carboxylic acid derivatives as novel JAK kinase inhibitors” (LEO Pharma A/S, priority 2017, dated 2020).

What is called EC50 is the concentration that produces a half-maximal response. Read a low EC50 as a more potent agent.

Common to all, as to assay type: biochemical
One assay addresses JAK3 (Homo sapiens (Human), UniProt P52333). The assay can be described thus: JAK kinase assay (HTRF), JAK3. Particulars: catalytic domain, ATP at Km (2 μM). On the procedure:
(§1) Human baculovirus-expressed JAK1, 2, 3 and TYK2 were purchased from Carna Biosciences, Inc. All four purified enzymes contain only the catalytic domain. JAK1 (aa 850-1154) and TYK2 (aa 871-1187) are expressed with an N-terminally fused GST-tag, and JAK2 and JAK3 with an N-terminally fused His-tag.
(§2) Inhibition of phosphorylation of a synthetic peptide was measured in an HTRF-based assay using the TK substrate-Biotin from the Cisbio HTRFKinEASE TK kit. First, 2 μl of TK solution (TK substrate-biotin in kinase buffer [1× enzymatic buffer from HTRFKinEASE TK kit, 1 mM DTT]) is added to a plate containing 1 μl prediluted compound (final assay concentration DMSO: 0.75%). Then, 5 μl kinase-ATP mix (prepared in kinase buffer) is added to the wells and the plates are incubated at RT for 20-30 min. For all four kinases a concentration of ATP that corresponded to the Km for ATP was used. The final concentrations of buffers, substrate, kinase and ATP were: JAK1: 50 mM Hepes buffer pH 7.0, 0.01% BSA, 10 mM MgCl2, 1 mM DTT, 7 μM ATP, 50 nM SEB, 1 μM TK Substrate-Biotin and 5 ng JAK1; JAK2: 50 mM Hepes buffer pH 7.0, 0.01% BSA, 5 mM MgCl2, 1 mM DTT, 4 μM ATP, 1 μM TK Substrate-Biotin and 0.1 ng JAK2; JAK3: 50 mM Hepes buffer pH 7.0, 0.01% BSA, 5 mM MgCl2, 1 mM DTT, 2 μM ATP, 1 μM TK Substrate-Biotin and 0.3 ng JAK3; TYK2: 50 mM Hepes buffer pH 7.0, 0.01% BSA, 5 mM MgCl2, 1 mM DTT, 13 μM ATP, 50 nM SEB, 1 μM TK Substrate-Biotin and 0.8 ng TYK2. Thereafter, the kinase reaction is stopped by adding 4 μl detection mix (final concentrations: 50 mM Hepes buffer pH 7.0, 0.01% BSA, 0.8 M KF, 20 mM EDTA, 42 nM Streptavidin-XL665 and 1:400 STK Ab Cryptate) and the plates are incubated overnight in the dark. The HTRF signal is read using an Envision plate reader.
(§3) In Table 1 selected JAK kinase inhibitory activities are listed along with analytical tR and observed M+H^+ data (UPLC-MS method 7).
For orientation: TR-FRET usually uses a lanthanide donor and a delayed reading to cut background.

For the next assay, the target named is JAK2 (Homo sapiens (Human), UniProt O60674). The assay is described as follows: JAK kinase assay (HTRF), JAK2. The conditions noted are these: catalytic domain, ATP at Km (4 μM). As for the experimental part:
as §1, §2

The next assay deals with JAK1 (Homo sapiens (Human), UniProt P23458). The assay can be described thus: JAK kinase assay (HTRF), JAK1. Particulars: catalytic domain, ATP at Km (7 μM). On the procedure:
as §1, §2

The target in the next assay is TYK2 (Homo sapiens (Human), UniProt P29597). The assay can be described thus: JAK kinase assay (HTRF), TYK2. The conditions noted are these: catalytic domain, ATP at Km (13 μM). As for the experimental part:
as §1, §2, §3

Chain of JAK1 (P23458 850-1154): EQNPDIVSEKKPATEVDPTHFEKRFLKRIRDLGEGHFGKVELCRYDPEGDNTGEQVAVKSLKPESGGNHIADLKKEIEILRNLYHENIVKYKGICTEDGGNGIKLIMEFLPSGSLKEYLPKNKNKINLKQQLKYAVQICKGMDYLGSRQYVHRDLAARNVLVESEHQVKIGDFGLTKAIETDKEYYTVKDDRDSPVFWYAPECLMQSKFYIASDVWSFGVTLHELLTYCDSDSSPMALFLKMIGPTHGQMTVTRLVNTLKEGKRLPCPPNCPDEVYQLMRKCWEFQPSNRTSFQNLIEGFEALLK
Chain of JAK2 (O60674 849-1124): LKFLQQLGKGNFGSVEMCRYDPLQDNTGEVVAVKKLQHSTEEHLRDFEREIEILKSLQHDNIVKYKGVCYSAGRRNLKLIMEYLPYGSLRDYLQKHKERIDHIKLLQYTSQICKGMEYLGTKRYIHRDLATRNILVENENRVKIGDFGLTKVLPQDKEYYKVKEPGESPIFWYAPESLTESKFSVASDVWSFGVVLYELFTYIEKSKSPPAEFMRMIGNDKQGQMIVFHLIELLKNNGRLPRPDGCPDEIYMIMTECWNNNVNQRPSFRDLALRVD
Chain of TYK2 (P29597 871-1187): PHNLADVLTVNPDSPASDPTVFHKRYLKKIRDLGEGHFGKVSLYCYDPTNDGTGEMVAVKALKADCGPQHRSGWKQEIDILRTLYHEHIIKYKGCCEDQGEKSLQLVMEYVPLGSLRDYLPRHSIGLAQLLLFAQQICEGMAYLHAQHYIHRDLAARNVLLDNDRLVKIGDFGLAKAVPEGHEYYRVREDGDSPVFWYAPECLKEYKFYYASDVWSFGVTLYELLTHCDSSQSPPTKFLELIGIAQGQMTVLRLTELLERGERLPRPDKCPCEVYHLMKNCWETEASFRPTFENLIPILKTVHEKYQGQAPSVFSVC
Chain of JAK3 (P52333 822-1111): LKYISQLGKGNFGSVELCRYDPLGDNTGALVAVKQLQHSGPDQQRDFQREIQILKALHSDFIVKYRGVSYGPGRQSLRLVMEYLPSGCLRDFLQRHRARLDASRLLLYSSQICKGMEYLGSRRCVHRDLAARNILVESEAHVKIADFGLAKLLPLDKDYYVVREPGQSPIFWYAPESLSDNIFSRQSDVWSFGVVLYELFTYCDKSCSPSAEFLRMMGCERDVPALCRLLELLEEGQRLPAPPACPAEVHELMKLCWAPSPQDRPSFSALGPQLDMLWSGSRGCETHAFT

Take `Cc1cc([C@@H](O)[C@H](C)NC(=O)[C@H]2CCN(c3ncnc4[nH]ccc34)CC23CC3)ncc1F` [Example 133, (8S)-N-[(1S,2S)-2-(5-fluoro-4-methyl-2-pyridyl)-2-hydroxy-1-methyl-ethyl]-5-(7H-pyrrolo[2,3-d]pyrimidin-4-yl)-5-azaspiro[2.5]octane-8-carboxamide]: the EC50 turned out to be 148 nM at JAK3, 37.5 nM on JAK2, 27.3 nM at JAK1 and 375 nM at TYK2.

Turning to `C[C@H](NC(=O)[C@H]1CCN(c2ncnc3[nH]ccc23)CC12CC2)[C@H](O)c1ccc(C#N)cc1` [Example 126, (8S)-N-[(1S,2R)-2-(4-cyanophenyl)-2-hydroxy-1-methyl-ethyl]-5-(7H-pyrrolo[2,3-d]pyrimidin-4-yl)-5-azaspiro[2.5]octane-8-carboxamide], the EC50 at JAK3 came out at 29.8 nM; on JAK2, 25.7 nM; on JAK1, 19.5 nM; on TYK2, 987 nM.

Take `O=C(N[C@@H](CO)Cc1ccccc1)C1CCN(c2ncnc3[nH]ccc23)CC12CC2` (stereo partly drawn) [Example 137, N-[(1R)-1-benzyl-2-hydroxy-ethyl]-5-(7H-pyrrolo[2,3-d]pyrimidin-4-yl)-5-azaspiro[2.5]octane-8-carboxamide]: the EC50 at JAK3 was 91.6 nM; on JAK2 it was 30.5 nM; at JAK1, 38 nM; on TYK2 it was 1380 nM.

With `COc1cc(C#N)ccc1[C@H](CO)NC(=O)[C@H]1CCN(c2ncnc3[nH]ccc23)CC12CC2` [Example 120, (8S)-N-[(1R)-1-(4-cyano-2-methoxy-phenyl)-2-hydroxy-ethyl]-5-(7H-pyrrolo[2,3-d]pyrimidin-4-yl)-5-azaspiro[2.5]octane-8-carboxamide], the half-maximal effective concentration (EC50) is 154 nM at JAK3, 40.2 nM at JAK2, 13.7 nM at JAK1 and 392 nM on TYK2.

Regarding `C[C@@H](NC(=O)[C@H]1CCN(c2ncnc3[nH]ccc23)CC12CC2)c1ccc(C#N)c(F)c1` [Example 84, (8S)-N-[(1R)-1-(4-cyano-3-fluoro-phenyl)ethyl]-5-(7H-pyrrolo[2,3-d]pyrimidin-4-yl)-5-azaspiro[2.5]octane-8-carboxamide], the EC50 was 55.5 nM at JAK3, 24.1 nM on JAK2, 7 nM at JAK1 and 249 nM on TYK2.

On to `C[C@H](NC(=O)[C@H]1CCN(c2ncnc3[nH]ccc23)CC12CC2)[C@@H](O)c1ccccn1` [Example 104, (8S)-N-[(1S,2R)-2-hydroxy-1-methyl-2-(2-pyridyl)ethyl]-5-(7H-pyrrolo[2,3-d]pyrimidin-4-yl)-5-azaspiro[2.5]octane-8-carboxamide], for which the EC50 on JAK3 stood at 163 nM; at JAK2, 30.3 nM; on JAK1 it was 10.1 nM; at TYK2, 149 nM.

For the compound `O=C(N[C@H](CO)C(=O)OC1CCCC1)[C@H]1CCN(c2ncnc3[nH]ccc23)CC12CC2` [Example 96, cyclopentyl (2R)-3-hydroxy-2-[[(8S)-5-(7H-pyrrolo[2,3-d]pyrimidin-4-yl)-5-azaspiro[2.5]octane-8-carbonyl]amino]propanoate], the EC50 was determined as 59.2 nM at JAK3, 28.7 nM on JAK2, 8.7 nM on JAK1 and 250 nM on TYK2.

As for `C[C@@H](NC(=O)[C@H]1CCN(c2ncnc3[nH]ccc23)CC12CC2)c1ccc(C#N)cc1F` [Example 101, (8S)-N-[(1R)-1-(4-cyano-2-fluoro-phenyl)ethyl]-5-(7H-pyrrolo[2,3-d]pyrimidin-4-yl)-5-azaspiro[2.5]octane-8-carboxamide], the EC50 on JAK3 is 157 nM; on JAK2 it was 72.8 nM; at JAK1, 9.3 nM; at TYK2, 516 nM.

With `O=C(N[C@H](CO)C1CCCCC1)[C@H]1CCN(c2ncnc3[nH]ccc23)CC12CC2` [Example 132, (8S)-N-[(1S)-1-cyclohexyl-2-hydroxy-ethyl]-5-(7H-pyrrolo[2,3-d]pyrimidin-4-yl)-5-azaspiro[2.5]octane-8-carboxamide], the EC50 at JAK3 was 162 nM; on JAK2 it was 94.5 nM; at JAK1, 25.3 nM; at TYK2 it was 665 nM.

`O=C(N[C@H](CO)C1CCC1)[C@H]1CCN(c2ncnc3[nH]ccc23)CC12CC2` [Example 147, (8S)-N-[(1S)-1-cyclobutyl-2-hydroxy-ethyl]-5-(7H-pyrrolo[2,3-d]pyrimidin-4-yl)-5-azaspiro[2.5]octane-8-carboxamide]: the EC50 on JAK3 was determined as 162 nM; on JAK2, 121 nM; on JAK1 it was 68.1 nM; at TYK2, 914 nM.

Turning to `O=C(N[C@H](CO)C(=O)OCC1CCCC1)[C@H]1CCN(c2ncnc3[nH]ccc23)CC12CC2` [Example 87, cyclopentylmethyl (2R)-3-hydroxy-2-[[(8S)-5-(7H-pyrrolo[2,3-d]pyrimidin-4-yl)-5-azaspiro[2.5]octane-8-carbonyl]amino]propanoate], the EC50 came out at 43 nM on JAK3, 25.5 nM on JAK2, 7.2 nM at JAK1 and 124 nM on TYK2.

For `C[C@H](NC(=O)C1CCN(c2ncnc3[nH]ccc23)CC12CC2)c1ccccc1` (stereo partly drawn) [Example 99, N-[(1S)-1-phenylethyl]-5-(7H-pyrrolo[2,3-d]pyrimidin-4-yl)-5-azaspiro[2.5]octane-8-carboxamide], the EC50 at JAK3 was found to be 31.1 nM; at JAK2, 11.2 nM; at JAK1, 9.1 nM; at TYK2 it was 399 nM.

With `O=C(N[C@H](CO)C(=O)OCC1(CO)CC1)[C@H]1CCN(c2ncnc3[nH]ccc23)CC12CC2` [Example 116, [1-(hydroxymethyl)cyclopropyl]methyl (2R)-3-hydroxy-2-[[(8S)-5-(7H-pyrrolo[2,3-d]pyrimidin-4-yl)-5-azaspiro[2.5]octane-8-carbonyl]amino]propanoate], the concentration for a half-maximal effect (EC50) was found to be 47.8 nM at JAK3, 24.7 nM on JAK2, 12.4 nM at JAK1 and 210 nM at TYK2.

In the case of `O=C(NCC1CCC1)C1CCN(c2ncnc3[nH]ccc23)CC12CC2` (stereo not drawn) [Example 115, N-(cyclobutylmethyl)-5-(7H-pyrrolo[2,3-d]pyrimidin-4-yl)-5-azaspiro[2.5]octane-8-carboxamide], the EC50 at JAK3 stood at 92.4 nM; at JAK2 it was 23.6 nM; at JAK1, 12.2 nM; at TYK2, 364 nM.

In the case of `O=C(N[C@H](CO)C(=O)OCc1ccccc1)[C@H]1CCN(c2ncnc3[nH]ccc23)CC12CC2` [Example 80, benzyl (2R)-3-hydroxy-2-[[(8S)-5-(7H-pyrrolo[2,3-d]pyrimidin-4-yl)-5-azaspiro[2.5]octane-8-carbonyl]amino]propanoate], the EC50 on JAK3 stood at 24.3 nM; at JAK2, 21.8 nM; on JAK1, 6.7 nM; on TYK2 it was 119 nM.

As to `O=C(N[C@H](CO)C(=O)OCC1(CO)CCC1)[C@H]1CCN(c2ncnc3[nH]ccc23)CC12CC2` [Example 98, [1-(hydroxymethyl)cyclobutyl]methyl (2R)-3-hydroxy-2-[[(8S)-5-(7H-pyrrolo[2,3-d]pyrimidin-4-yl)-5-azaspiro[2.5]octane-8-carbonyl]amino]propanoate], the EC50 on JAK3 was 44.3 nM; at JAK2, 15 nM; on JAK1, 8.8 nM; on TYK2, 177 nM.

On to `N#Cc1ccc([C@@H](CO)NC(=O)[C@H]2CCN(c3ncnc4[nH]ccc34)CC23CC3)nc1` [Example 108, (8S)-N-[(1S)-1-(5-cyano-2-pyridyl)-2-hydroxy-ethyl]-5-(7H-pyrrolo[2,3-d]pyrimidin-4-yl)-5-azaspiro[2.5]octane-8-carboxamide], for which the EC50 stood at 85.1 nM on JAK3, 48.2 nM on JAK2, 10.3 nM at JAK1 and 347 nM at TYK2.

Regarding `O=C(N[C@@H](CO)c1ccccn1)[C@H]1CCN(c2ncnc3[nH]ccc23)CC12CC2` [Example 122, (8S)-N-[(1R)-2-hydroxy-1-(2-pyridyl)ethyl]-5-(7H-pyrrolo[2,3-d]pyrimidin-4-yl)-5-azaspiro[2.5]octane-8-carboxamide], the EC50 at JAK3 turned out to be 153 nM; on JAK2, 37.3 nM; at JAK1, 16.3 nM; at TYK2, 203 nM.
